Assay: Numerical particle size distribution by microscopical image analysis of brinzolamide suspensions made by different homogenization techniques (Example 1)
Type: physicochemical
Settings: suspension in 0.05% Polysorbate 80, prior to treatment
Protocol: Preferably, particle size analyses and particle size distributions of the suspension are obtained by microscopy using a particle size analyser (preferably by following US Pharmacopeia 29 <776>—Optical Microscopy).
In Examples 1.1, 1.2 and 1.3, brinzolamide ophthalmic suspensions were prepared by using three different homogenization techniques (high pressure homogenization in accordance with the present invention, high shear homogenization and ball milling) in order to test the effectiveness these techniques on de-agglomeration of brinzolamide particles and coating of the particles with wetting agent. Three different wetting agents were used (Polysorbate 80, Poloxamer 407 and Tyloxapol). Particle size analyses were conducted by microscopy.
Portions of the suspension were treated separately by the following three methods (i)-(iii): • (i) high pressure homogenization (5000 psi/5 cycles using Microfluidizer® high pressure homogenizer) • (ii) high shear homogenization (8000 rpm/120 minutes (Ultra-Turrax high shear mixer) • (iii) ball milling (8.5 hours at 22-24 rpm (tumble blender; Zirconox beads: 0.7-1.2 mm)

particle size distribution of the individual brinzolamide particles, d90: ≤ 3.0 μm
particle size of agglomerates of brinzolamide: greater than 10 μm
Compound: CCN[C@H]1CN(CCCOC)S(=O)(=O)c2sc(S(N)(=O)=O)cc21 [brinzolamide]

Source: US20130065888A1, “OPHTHALMIC FORMULATIONS AND PROCESSES FOR THEIR PREPARATION” (priority 2011, published 2013)
